Assay results from patent US7964560B2, “Hepatitis C virus inhibitors” (Bristol-Myers Squibb Company, priority 2008, dated 2011).
Read-outs that look alike come from different tables or passages of the source.

Assays:
[1] = target: T1, HCV NS3/4A protease complex, BMS strain (UniProt P27958, species not given/STRAIN_BMS); test: FRET peptide assay to monitor HCV NS3/4A proteolytic activity (BMS strain); type: biochemical, Hepatitis C virus (genotype 1a); settings: read-out: IC50 against the NS3/4A BMS strain in the enzyme assay; BMS strain
T1 construct: other: BMS strain; said of H77 and J4L6S; fused on or other part: three-lysine solubilising tail at the end of NS4A (printed for the H77 and J4L6S constructs; probably the same for BMS)
From the text: (§1) HCV […] protease complexes, derived from the BMS strain, H77 strain or J4L6S strain, were generated, as described below. These purified recombinant proteins were generated for use in a homogeneous assay (see below) to provide an indication of how effective compounds of the present disclosure would be in inhibiting HCV NS3 proteolytic activity.
(§2) Serum from an HCV-infected patient was obtained from Dr. T. Wright, San Francisco Hospital. An engineered full-length cDNA (compliment deoxyribonucleic acid) template of the HCV genome (BMS strain) was constructed from DNA fragments obtained by reverse transcription-PCR (RT-PCR) of serum RNA (ribonucleic acid) and using primers selected on the basis of homology between other genotype 1a strains. From the determination of the entire genome sequence, a genotype 1a was assigned to the HCV isolate according to the classification of Simmonds et al. (See Simmonds, P. et al., J. Clin. Microbiol., 31(6), 1493-1503 (1993)). […] The infectious clones, H77 (1a genotype) and J4L6S (1b genotype) were obtained from R. Purcell (NIH) and the sequences are published in GENBANK® (AAB67036, see Yanagi, M. et al., Proc. Natl. Acad. Sci. U.S.A., 94(16):8738-8743 (1997); AF054247, see Yanagi, M. et al., Virology, 244(1):161-172 (1998)).
(§3) The H77 and J4L6S strains were used for production of recombinant NS3/4A protease complexes. DNA encoding the recombinant HCV NS3/4A protease complex (amino acids 1027 to 1711) for these strains were manipulated as described by P. Gallinari et al. (see Gallinari, P. et al, Biochemistry, 38(17):5620-5632 (1999)). Briefly, a three-lysine solubilizing tail was added at the 3′-end of the NS4A coding region. The cysteine in the P1 position of the NS4A-NS4B cleavage site (amino acid 1711) was changed to a glycine to avoid the proteolytic cleavage of the lysine tag. Furthermore, a cysteine to serine mutation was introduced by PCR at amino acid position 1454 to prevent the autolytic cleavage in the NS3 helicase domain. The variant DNA fragment was cloned in the pET21b bacterial expression vector (Novagen) and the NS3/4A complex was expressed in Escherichia. coli strain BL21 (DE3) (Invitrogen) following the protocol described by P. Gallinari et al. (see Gallinari, P. et al., J. Virol., 72(8):6758-6769 (1998)) with modifications. Briefly, the NS3/4A protease complex expression was induced with 0.5 millimolar (mM) Isopropyl β-D-1-thiogalactopyranoside (IPTG) for 22 hours (h) at 20° C. A typical fermentation (1 Liter (L)) yielded approximately 10 grams (g) of wet cell paste. The cells were resuspended in lysis buffer (10 mL/g) consisting of 25 mM N-(2-hydroxyethyl)piperazine-N′-(2-ethane sulfonic acid) (HEPES), pH 7.5, 20% glycerol, 500 mM sodium chloride (NaCl), 0.5% Triton X-100, 1 microgram/milliliter (“μg/mL”) lysozyme, 5 mM magnesium chloride (MgCl2), 1 μg/ml DnaseI, 5 mM β-mercaptoethanol (βME), protease inhibitor-ethylenediamine tetraacetic acid (EDTA) free (Roche), homogenized and incubated for 20 minutes (min) at 4° C. The homogenate was sonicated and clarified by ultra-centrifugation at 235000 g for 1 hour (h) at 4° C. Imidazole was added to the supernatant to a final concentration of 15 mM and the pH adjusted to 8.0. The crude protein extract was loaded on a Nickel-Nitrilotriacetic acid (Ni-NTA) column pre-equilibrated with buffer B (25 mM HEPES, pH 8.0, 20% glycerol, 500 mM NaCl, 0.5% Triton X-100, 15 mM imidazole, 5 mM βME). The sample was loaded at a flow rate of 1 mL/min. The column was washed with 15 column volumes of buffer C (same as buffer B except with 0.2% Triton X-100). The protein was eluted with 5 column volumes of buffer D (same as buffer C except with 200 mM Imidazole).
(§4) NS3/4A protease complex-containing fractions were pooled and loaded on a desalting column Superdex-S200 pre-equilibrated with buffer D (25 mM HEPES, pH 7.5, 20% glycerol, 300 mM NaCl, 0.2% Triton X-100, 10 mM βME). Sample was loaded at a flow rate of 1 mL/min. […]
T1 sequence (P27958 1027-1657, stated change not applied, one chain of several): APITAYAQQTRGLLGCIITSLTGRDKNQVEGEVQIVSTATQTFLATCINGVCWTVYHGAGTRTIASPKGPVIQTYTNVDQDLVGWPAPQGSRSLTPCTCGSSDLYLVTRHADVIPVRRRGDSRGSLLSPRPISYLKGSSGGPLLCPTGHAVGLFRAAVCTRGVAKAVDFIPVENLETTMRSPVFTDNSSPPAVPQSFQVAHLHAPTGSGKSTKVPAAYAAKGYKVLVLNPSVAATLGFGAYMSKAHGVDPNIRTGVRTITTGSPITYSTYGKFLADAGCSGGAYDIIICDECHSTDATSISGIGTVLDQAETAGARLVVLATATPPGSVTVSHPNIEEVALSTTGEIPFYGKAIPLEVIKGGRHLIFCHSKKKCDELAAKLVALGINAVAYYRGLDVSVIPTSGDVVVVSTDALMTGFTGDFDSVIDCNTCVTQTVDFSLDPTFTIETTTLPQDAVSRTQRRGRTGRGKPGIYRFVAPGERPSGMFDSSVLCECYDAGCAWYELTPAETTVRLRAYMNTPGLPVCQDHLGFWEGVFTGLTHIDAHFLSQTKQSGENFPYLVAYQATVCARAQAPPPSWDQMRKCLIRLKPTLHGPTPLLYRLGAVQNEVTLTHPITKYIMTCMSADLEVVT

[2] = target: T2, HCV NS3/4A protease complex, BMS strain (UniProt P27958, species not given/STRAIN_BMS); test: as above; type: biochemical, Hepatitis C virus (genotype 1a); settings: Table 2, NS3/4A BMS strain, numeric values
T2 construct: said of H77 and J4L6S; fused on or other part: three-lysine solubilising tail at the end of NS4A (printed for the H77 and J4L6S constructs; probably the same for BMS)
From the text: as §1, §2, §3, §4
T2 sequence (P27958 1027-1657, stated change not applied, one chain of several): as above

[3] = system: HCV replicon (Renilla luciferase reporter) in HUH-7 cells; test: HCV replicon luciferase reporter assay; type: cell-based, Hepatitis C virus (strain 1b); settings: Huh-7, 96 h, 4 days
human liver cathepsin B = target: T3, human liver cathepsin B (Homo sapiens, UniProt P07858); test: Specificity assay, cathepsin B; type: biochemical
T3 construct: purchased Sigma, EMDbiosciences; host or cells: human liver
Description: The specificities of compounds of the present disclosure were determined against a variety of serine proteases: human neutrophil elastase (HNE), porcine pancreatic elastase (PPE) and human pancreatic chymotrypsin and one cysteine protease: human liver cathepsin B. In all cases a 96-well plate format protocol using a fluorometric Amino-Methyl-Coumarin (AMC) substrate specific for each enzyme was used as described previously (PCT Patent Application No. WO 00/09543) with some modifications to the serine protease assays. All enzymes were purchased from Sigma, EMDbiosciences while the substrates were from Bachem, Sigma and EMDbiosciences.
Compound concentrations varied from 100 to 0.4 μM depending on their potency. The enzyme assays were each initiated by addition of substrate to enzyme-inhibitor pre-incubated for 10 min at room temperature and hydrolysis to 15% conversion as measured on CYTOFLUOR®.
100 mM NaOAC (Sodium Acetate) pH 5.5, 3% DMSO, 1 mM TCEP (Tris(2-carboxyethyl)phosphine hydrochloride), 5 nM Cathepsin B (enzyme stock activated in buffer containing 20 mM TCEP before use), and 2 μM Z-FR-AMC diluted in H2O.
The percentage of inhibition was calculated using the formula: [1−((UVinh−UVblank)/(UVctl−UVblank))]×100
A non-linear curve fit was applied to the inhibition-concentration data, and the 50% effective concentration (IC50) was calculated by the use of Excel XLfit software.

Compound: C=C[C@@H]1C[C@]1(NC(=O)[C@@H]1C[C@@](SCCCC)(c2ccc(-c3ccccc3)cc2)CN1C(=O)[C@@H](NC(=O)OC(C)(C)C)C(C)(C)C)C(=O)NS(=O)(=O)C1CC1 [Example 1, tert-butyl (S)-1-((2S,4R)-4-(biphenyl-4-yl)-4-(butylthio)-2-((1R,2S)-1-(cyclopropylsulfonylcarbamoyl)-2-vinylcyclopropylcarbamoyl)pyrrolidin-1-yl)-3,3-dimethyl-1-oxobutan-2-ylcarbamate]
- IC50 [1]: 4.6 nM
- IC50 [2]: 3 nM
- EC50 [3]: 6 nM
- IC50 (human liver cathepsin B): 7500 nM
